Data on 17 compounds can be found in patent US20250320213A1, “Nitrogen-Containing Heterocyclic Compounds” (Pfizer Inc., priority 2024, published 2025).

Read-outs that look alike come from different tables or passages of the source. A value given as a limit tells only on which side of the number the result lay.

Assay [1] deals with T1, STAT6 (Homo sapiens, UniProt P42226).
T1 construct: stably transfected HaCaT keratinocyte cell line, which expresses NanoLuc luciferase reporter gene under the transcriptional control of the STAT6 responsive promoter; endogenous in cells; host or cells: HaCaT keratinocyte reporter cell line (stably transfected with a NanoLuc reporter)
T1 sequence (P42226 1-847): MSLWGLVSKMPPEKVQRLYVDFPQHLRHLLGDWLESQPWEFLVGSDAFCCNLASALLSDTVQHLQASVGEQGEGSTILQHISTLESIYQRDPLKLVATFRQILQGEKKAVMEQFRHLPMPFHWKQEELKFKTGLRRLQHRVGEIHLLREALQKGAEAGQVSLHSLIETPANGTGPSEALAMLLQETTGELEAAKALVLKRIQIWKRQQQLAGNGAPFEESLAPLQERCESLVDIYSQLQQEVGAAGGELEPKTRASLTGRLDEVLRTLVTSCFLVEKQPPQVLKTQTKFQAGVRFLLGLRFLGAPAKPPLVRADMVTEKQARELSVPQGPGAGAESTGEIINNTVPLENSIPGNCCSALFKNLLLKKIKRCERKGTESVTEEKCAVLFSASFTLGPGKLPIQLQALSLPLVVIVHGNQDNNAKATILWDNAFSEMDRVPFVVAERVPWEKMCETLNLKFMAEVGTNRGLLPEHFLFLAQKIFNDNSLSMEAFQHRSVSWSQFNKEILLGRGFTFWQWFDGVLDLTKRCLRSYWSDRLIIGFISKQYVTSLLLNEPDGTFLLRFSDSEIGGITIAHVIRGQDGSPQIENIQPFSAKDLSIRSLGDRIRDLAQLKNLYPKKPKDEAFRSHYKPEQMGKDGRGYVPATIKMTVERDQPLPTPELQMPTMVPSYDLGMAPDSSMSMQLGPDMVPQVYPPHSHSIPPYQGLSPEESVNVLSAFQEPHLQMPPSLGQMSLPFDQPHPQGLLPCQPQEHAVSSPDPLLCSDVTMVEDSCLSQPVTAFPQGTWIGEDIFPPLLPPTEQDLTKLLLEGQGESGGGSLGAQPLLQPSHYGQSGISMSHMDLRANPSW
Kind of assay: STAT6 Reporter Luciferase Assay (IL-13 stimulated HaCaT keratinocyte NanoLuc reporter cells). The format is cell-based. The note with it: read-out: Reporter EC50. Put shortly: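 IL-13 (0.12 nM, 4 h) stimulated STAT6 reporter activity in HaCaT cells after a 2 h compound pre-incubation; NanoLuc signal was measured.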

Assay [2] concerns CCL17 secretion in peripheral human whole blood. The experiment in a line: Human Whole Blood (HWB) CCL17 TR-FRET Assay (IL-13 stimulated CCL17 secretion). The format is cell-based. Put shortly: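 Compounds are titrated (11 points, 3-fold, duplicate) into fresh heparinized human whole blood and held 2 h at 37 °C before IL-13 challenge (10 ng/mL final). After 48 h at 37 °C, serum CCL17 is measured by TR-FRET sandwich assay and IC50 values are calculated.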
On the technique in general: In TR-FRET formats the signal depends on donor and acceptor labels being close together.

Setting [3] is: IL-13 stimulated HaCaT STAT6 NanoLuc reporter cells.
[4] abbreviates: Homo sapiens, 48 h, human whole blood, IL-13 stimulated.
[5] abbreviates: human whole blood, IL-13 stimulated, 48 hours.
Setting [6] is: STAT6 NanoLuc luciferase reporter, IL-13 stimulated HaCaT keratinocyte cells.
[7] abbreviates: Homo sapiens, 48 h, inhibition of CCL17 secretion in human whole blood, 10 ng/mL IL13, 48 hours.
Where [8] appears, read: Homo sapiens, 48 h, human whole blood, 10 ng/mL IL13, 48 hours.

For orientation: EC50 means the concentration at which the effect is half-maximal. A word on the IC50: it is the concentration that inhibits the measured activity by half. The low end stands for greater potency, the high end for weaker potency. Consider `CC(n1nc(C(=O)NCc2ccc(NC(=O)N(C)C)cc2)c2c1[C@@H](C)CN(c1ccc(C(=O)N(C)C)cn1)C2)C(F)(F)F` (mixture of isomers) [Example 262, (S)-5-(5-(dimethylcarbamoyl)pyridin-2-yl)-N-(4-(3,3-dimethylureido)benzyl)-7-methyl-1-((RS)-1,1,1-trifluoropropan-2-yl)-4,5,6,7-tetrahydro-1H-pyrazolo[4,3-c]pyridine-3-carboxamide], for which, in assay [1] (setting [3]), the EC50 was 1 nM. This compound registered an IC50 in assay [2] (setting [4]) of 6 nM.
For `CC(C)n1nc(C(=O)NCc2ccc(NC(=O)N(C)C)cc2)c2c1[C@@H](C)[C@H](C)N(c1ccc(C(=O)N(C)C)cn1)C2` (single isomer, unassigned) [Example 355], in that order: 0.2 nM and 3 nM.
For `CC(n1nc(C(=O)NCc2ccc(NC(=O)N(C)C)cc2)c2c1CCN(c1ccc(C(=O)N(C)C)cn1)C2)C(C)(C)C` (stereo not shown) [Example 278, 1-(3,3-dimethylbutan-2-yl)-5-(5-(dimethylcarbamoyl)pyridin-2-yl)-N-(4-(3,3-dimethylureido)benzyl)-4,5,6,7-tetrahydro-1H-pyrazolo[4,3-c]pyridine-3-carboxamide], in that order: 5 nM and 253 nM.
Take `CC(C)n1nc(C(=O)NCc2ccc(NC(=O)N(C)C)cc2)c2c1C(C(F)F)CN(c1ccc(C(=O)N(C)C)cn1)C2` (single isomer, unassigned) [Example 494, rel-(R or S)-7-(difluoromethyl)-5-(5-(dimethylcarbamoyl)pyridin-2-yl)-N-(4-(3,3-dimethylureido)benzyl)-1-isopropyl-4,5,6,7-tetrahydro-1H-pyrazolo[4,3-c]pyridine-3-carboxamide]: the EC50 in assay [1] (setting [3]) stood at 0.5 nM. This compound also came in with an IC50 in assay [2] (setting [5]) of 4 nM.
On to `CC(C)n1nc(C(=O)NCc2ccc(NC(=O)N(C)C)cc2)c2c1CCN(c1ccc(N3CCOCCC3=O)cn1)C2` [Example 100, N-(4-(3,3-dimethylureido)benzyl)-1-isopropyl-5-(5-(5-oxo-1,4-oxazepan-4-yl)pyridin-2-yl)-4,5,6,7-tetrahydro-1H-pyrazolo[4,3-c]pyridine-3-carboxamide], for which, in assay [1] (setting [6]), the EC50 amounted to 174 nM. In addition, inhibition in assay [2] (setting [7]) was half-maximal at 1800 nM (IC50).
On to `CC(C)n1nc(C(=O)NCc2ccc(-c3cnn(C)c3)cc2)c2c1[C@@H](C)CN(c1ccc(C(=O)N(C)C)cc1)C2` [Example 732, (S)-5-(4-(dimethylcarbamoyl)phenyl)-1-isopropyl-7-methyl-N-(4-(1-methyl-1H-pyrazol-4-yl)benzyl)-4,5,6,7-tetrahydro-1H-pyrazolo[4,3-c]pyridine-3-carboxamide], for which the EC50 in assay [1] (setting [3]) is 88 nM. For the same compound, in assay [2] (Homo sapiens, 48 h, human whole blood, IL-13 10 ng/mL), inhibition was half-maximal at 3070 nM (IC50).
Consider `CC(C)n1nc(C(=O)NCc2ccc(NC(=O)N3CC4(CCN4)C3)cc2)c2c1[C@@H](C)CN(c1ccc(C(=O)N(C)C)cc1)C2` [Example 621, (S)-N-(4-(1,6-diazaspiro[3.3]heptane-6-carboxamido)benzyl)-5-(4-(dimethylcarbamoyl)phenyl)-1-isopropyl-7-methyl-4,5,6,7-tetrahydro-1H-pyrazolo[4,3-c]pyridine-3-carboxamide], for which the EC50 in assay [1] (setting [3]) was found to be 7 nM. Moreover, the half-inhibitory concentration (IC50) in assay [2] (setting [8]) is 31 nM.
For `CC(C)n1nc(C(=O)NCc2ccc(NC(=O)N(C)C)cc2)c2c1[C@@H](C)CN(c1ccc(C(=O)N(C)CC3CN(C)C3)cc1)C2` [Example 629, (S)-N-(4-(3,3-dimethylureido)benzyl)-1-isopropyl-7-methyl-5-(4-(methyl((1-methylazetidin-3-yl)methyl)carbamoyl)phenyl)-4,5,6,7-tetrahydro-1H-pyrazolo[4,3-c]pyridine-3-carboxamide], in that order: 121 nM and 390 nM.
In the case of `CCn1nc(C(=O)NCc2ccc(NC(=O)N(C)C)cc2)c2c1C(C(F)(F)F)CN(c1ncc(C(=O)N(C)C)cn1)C2` (single isomer, unassigned) [Example 465, rel-(R or S)-5-(5-(dimethylcarbamoyl)pyrimidin-2-yl)-N-(4-(3,3-dimethylureido)benzyl)-1-ethyl-7-(trifluoromethyl)-4,5,6,7-tetrahydro-1H-pyrazolo[4,3-c]pyridine-3-carboxamide], in assay [1] (setting [3]), the concentration giving a half-maximal response (EC50) is 51.8 nM. In assay [2] (setting [5]), half-maximal inhibition (IC50) was put at 682 nM.
As to `CC(C)n1nc(C(=O)NCc2ccc(NC(=O)N(C)C)cc2)c2c1[C@@H](C)CN(c1ccc(C(=O)O)cn1)C2` [Example 504, (S)-6-(3-((4-(3,3-dimethylureido)benzyl)carbamoyl)-1-isopropyl-7-methyl-1,4,6,7-tetrahydro-5H-pyrazolo[4,3-c]pyridin-5-yl)nicotinic acid], the EC50 in assay [1] (setting [3]) is 874 nM. This compound yielded an IC50 in assay [2] (setting [4]) of over 21200 nM.
For `CCn1nc(C(=O)NCc2ccc(C(=O)NC)cc2)c2c1C(C(F)(F)F)CN(c1ccc(C(=O)N(C)C)cn1)C2` (racemic) [Example 463, rac-(R)-5-(5-(dimethylcarbamoyl)pyridin-2-yl)-1-ethyl-N-(4-(methylcarbamoyl)benzyl)-7-(trifluoromethyl)-4,5,6,7-tetrahydro-1H-pyrazolo[4,3-c]pyridine-3-carboxamide], in that order: 2.7 nM and 23 nM.
Consider `CC(C)n1nc(C(=O)NCc2ccc(NC(=O)N3CCN4CCC[C@H]4C3)cc2)c2c1[C@@H](C)CN(c1ccc(C(=O)N(C)C)cc1)C2` [Example 575, (S)-5-(4-(dimethylcarbamoyl)phenyl)-1-isopropyl-7-methyl-N-(4-((S)-octahydropyrrolo[1,2-a]pyrazine-2-carboxamido)benzyl)-4,5,6,7-tetrahydro-1H-pyrazolo[4,3-c]pyridine-3-carboxamide], for which, in assay [1] (setting [3]), the EC50 turned out to be 1 nM. Besides, the IC50 in assay [2] (setting [8]) was 10 nM.
For the compound `CC(C)n1nc(C(=O)NCc2ccc(NC(=O)N(C)C)cc2)c2c1CCN(c1ccc(C(=O)N(C)C)cn1)C2` [Example 2, 5-(5-(Dimethylcarbamoyl)pyridin-2-yl)-N-(4-(3,3-dimethylureido)benzyl)-1-isopropyl-4,5,6,7-tetrahydro-1H-pyrazolo[4,3-c]pyridine-3-carboxamide], the EC50 in assay [1] (setting [6]) was found to be 8 nM. Besides, the IC50 in assay [2] (setting [7]) turned out to be 69 nM.
Turning to `CNC1CN(C(=O)Nc2ccc(CNC(=O)c3nn(C(C)C)c4c3CN(c3ccc(C(=O)N(C)C)cc3)C[C@@H]4C)cc2)C1` [Example 619, (S)-5-(4-(dimethylcarbamoyl)phenyl)-1-isopropyl-7-methyl-N-(4-(3-(methylamino)azetidine-1-carboxamido)benzyl)-4,5,6,7-tetrahydro-1H-pyrazolo[4,3-c]pyridine-3-carboxamide], in assay [1] (setting [3]), the EC50 is 3 nM. The compound also yielded an IC50 in assay [2] (setting [8]) of 19 nM.
Consider `CCC1CN(c2ccc(C(=O)N(C)C)cn2)Cc2c(C(=O)NCc3ccc(NC(=O)N(C)C)cc3)n[nH]c21` (racemic) [Example 57, rac-(R)-5-(5-(dimethylcarbamoyl)pyridin-2-yl)-N-(4-(3,3-dimethylureido)benzyl)-7-ethyl-4,5,6,7-tetrahydro-1H-pyrazolo[4,3-c]pyridine-3-carboxamide], for which the EC50 in assay [1] (setting [6]) was 98 nM. In assay [2] (setting [7]), this compound returned an IC50 of 182 nM.
With `CC(C)n1nc(C(=O)NCc2ccc(NC(=O)N3CCN(C)CC3)cc2)c2c1[C@@H](C)CN(c1ccc(-n3ccccc3=O)cc1)C2` [Example 594, (S)-1-isopropyl-7-methyl-N-(4-(4-methylpiperazine-1-carboxamido)benzyl)-5-(4-(2-oxopyridin-1(2H)-yl)phenyl)-4,5,6,7-tetrahydro-1H-pyrazolo[4,3-c]pyridine-3-carboxamide], in assay [1] (setting [3]), the EC50 was 2 nM. The compound also registered an IC50 in assay [2] (setting [8]) of 25 nM.
Regarding `CCn1nc(C(=O)NCc2ccc(NC(=O)N(C)C)cc2)c2c1CCN(c1ccc(N3CCCC3=O)cn1)C2` [Example 36, N-(4-(3,3-Dimethylureido)benzyl)-1-ethyl-5-(5-(2-oxopyrrolidin-1-yl)pyridin-2-yl)-4,5,6,7-tetrahydro-1H-pyrazolo[4,3-c]pyridine-3-carboxamide], in assay [1] (setting [6]), the EC50 worked out at 24 nM. The same compound gave an IC50 in assay [2] (setting [7]) of 254 nM.
